Measured values published in patent US11221321B2, “Liquid chromatographic method for the simultaneous analysis of antihypertensive and antilipidemic agents and interactions thereof” (Imam Abdulrahman Bin Faisal University, priority 2019, dated 2022).

Assay: In vitro drug-drug interaction studies of sartan and statin in dissolution media by UV/Visible spectrophotometry
Format: physicochemical
Conditions: SGM and pH 4, 7.4, 9, 37° C., 2 hours; for interaction of losartan and atorvastatin (FIG. 7): LOS + ATR added together at 0 min; for interaction of valsartan and atorvastatin (FIG. 10): VAL + ATR added together at 0 min
Procedure: Interaction studies by UV/Visible spectrophotometry. In vitro interaction studies of antihypertensive drugs and antilipidemic agents were studied individually by using different kinds of dissolution media: SGM and media at pH 4, 7.4 and 9 as described in the experimental section.
In each set of experiments losartan or valsartan was initially added at 0 min to 500 mL dissolution medium SGM or media at pH 4, 7.4 and 9 already maintained at 37° C. The second drug, statin (ATOR, PRA or SIM) was added at the same time at zero mins. 5 mL samples were collected at regular intervals for 2 hours. The drug contents (losartan in presence of respective interacting drug, and valsartan in presence of respective interacting drug) were quantified spectrophotometrically at their respective λmax by employing simultaneous equations; FIGS. 7-12.
In FIG. 7, the drug contents (losartan in presence of respective interacting drug) were quantified spectrophotometrically at their respective λmax by employing simultaneous equations, that is, by using the molar absorptive value of the drug at a particular wavelength and a particular pH.
As the spectra of the two interacting drugs fused with each other, simultaneous methods were developed to determine losartan/valsartan and drugs of interacting classes along with each other. This technique enables one to quantitate the content of the two drugs co-existing in the same medium, without needing to separate them. To achieve this, molar absorptivity values of both losartan and the respective interacting drug were calculated at λmax of their own and at the λmax of each other using their calibration curves standards in all four pH medium.

Row | Structure (SMILES) | interaction of losartan and atorvastatin (FIG. 7) | interaction of valsartan and atorvastatin (FIG. 10) | interaction of losartan and pravastatin (FIG. 8) (LOS + PRA added together at 0 min) | interaction of losartan and simvastatin (FIG. 9) (LOS + SIM added together at 0 min) | interaction of valsartan and pravastatin (FIG. 11) (VAL + PRA added together at 0 min) | interaction of valsartan and simvastatin (FIG. 12) (VAL + SIM added together at 0 min)
1 | CC(C)c1c(C(=O)Nc2ccccc2)c(-c2ccccc2)c(-c2ccc(F)cc2)n1CC[C@@H](O)C[C@@H](O)CC(=O)O [ATR, Atorvastatin] | have undergone interaction | may interact in the digestive tract |  |  |  | 
2 | CCCCc1nc(Cl)c(CO)n1Cc1ccc(-c2ccccc2-c2nn[nH]n2)cc1 [LOS, Losartan] | have undergone interaction |  | may interact in the digestive tract | NOT available in their original form |  | 
3 | CCCCC(=O)N(Cc1ccc(-c2ccccc2-c2nnn[nH]2)cc1)[C@H](C(=O)O)C(C)C [VAL, Valsartan] |  | may interact in the digestive tract |  |  | may interact in the digestive tract | may interact in the digestive tract
